According to ChEMBL document CHEMBL1201862, “PubChem BioAssay data set” (2004):
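Results reflect a 48-hour exposure of cells in 96-well plates to compound at five concentrations. Abbreviation: GI50, concentration required for 50% inhibition of growth.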 Calls of active or inactive are those of the source. Cut-off read from the data, not from the text of the source: active = GI50 up to about 1.1 µM and inactive = higher.

How the values were obtained:
Test in all cases: NCI-60 cell line screen, 48 h
T47D = tested on: T47D
COLO 205 = tested on: COLO 205
PC-3 = tested on: PC-3
A498 = tested on: A498
SK-OV-3 = tested on: SK-OV-3
HL-60 = tested on: HL-60
RPMI-8226 = tested on: RPMI-8226
RXF 393 = tested on: RXF 393
SNB-75 = tested on: SNB-75
IGROV-1 = tested on: IGROV-1
HOP-62 = tested on: HOP-62
786-0 = tested on: 786-0
SK-MEL-5 = tested on: SK-MEL-5
NCI-H23 = tested on: NCI-H23
SK-MEL-2 = tested on: SK-MEL-2
HOP-92 = tested on: HOP-92
OVCAR-8 = tested on: OVCAR-8
DU-145 = tested on: DU-145
UACC-257 = tested on: UACC-257
CAKI-1 = tested on: CAKI-1
CCRF-CEM = tested on: CCRF-CEM
MOLT-4 = tested on: MOLT-4
SNB-19 = tested on: SNB-19
SR = tested on: SR
SF-295 = tested on: SF-295
MDA-MB-435 = tested on: MDA-MB-435
K562 = tested on: K562
SN12C = tested on: SN12C
BT-549 = tested on: BT-549
KM12 = tested on: KM12
OVCAR-4 = tested on: OVCAR-4
UACC-62 = tested on: UACC-62
UO-31 = tested on: UO-31
TK-10 = tested on: TK-10
LOX IMVI = tested on: LOX IMVI
Hs-578T = tested on: Hs-578T
ACHN = tested on: ACHN
NCI-H460 = tested on: NCI-H460
MDA-MB-231 = tested on: MDA-MB-231
OVCAR-3 = tested on: OVCAR-3
HCT-15 = tested on: HCT-15
Malme-3M = tested on: Malme-3M
NCI/ADR-RES = tested on: NCI/ADR-RES
MDA-N = tested on: MDA-N
SK-MEL-28 = tested on: SK-MEL-28
HT-29 = tested on: HT-29
MCF7 = tested on: MCF7
SW-620 = tested on: SW-620
OVCAR-5 = tested on: OVCAR-5
U-251 = tested on: U-251
SF-539 = tested on: SF-539
M14 = tested on: M14
SF-268 = tested on: SF-268
A549 = tested on: A549
NCI-H226 = tested on: NCI-H226
HCT-116 = tested on: HCT-116
NCI-H522 = tested on: NCI-H522
EKVX = tested on: EKVX
HCC 2998 = tested on: HCC 2998

COC1(c2cccs2)c2ccccc2C(OC)(c2cccs2)c2ccccc21 (configuration not stated)
GI50 (T47D): 85.7 µM (inactive)
GI50 (COLO 205): 85.5 µM (inactive)
GI50 (PC-3): 42.9 µM (inactive)
GI50 (A498): 28.5 µM (inactive)
GI50 (SK-OV-3): 86.1 µM (inactive)
GI50 (HL-60): > 100 µM (inactive)
GI50 (RPMI-8226): 63.2 µM (inactive)
GI50 (RXF 393): 52.4 µM (inactive)
GI50 (SNB-75): 59.8 µM (inactive)
GI50 (IGROV-1): > 100 µM (inactive)
GI50 (HOP-62): 42.3 µM (inactive)
GI50 (786-0): 35.3 µM (inactive)
GI50 (SK-MEL-5): > 100 µM (inactive)
GI50 (NCI-H23): 23.9 µM (inactive)
GI50 (SK-MEL-2): 50.5 µM (inactive)
GI50 (HOP-92): 54.2 µM (inactive)
GI50 (OVCAR-8): > 100 µM (inactive)
GI50 (DU-145): 71 µM (inactive)
GI50 (UACC-257): > 100 µM (inactive)
GI50 (CAKI-1): > 100 µM (inactive)
GI50 (CCRF-CEM): > 100 µM (inactive)
GI50 (MOLT-4): 16.7 µM (inactive)
GI50 (SNB-19): 42.8 µM (inactive)
GI50 (SR): 40.7 µM (inactive)
GI50 (SF-295): 28.3 µM (inactive)
GI50 (MDA-MB-435): > 100 µM (inactive)
GI50 (K562): 36 µM (inactive)
GI50 (SN12C): > 100 µM (inactive)
GI50 (BT-549): 78.5 µM (inactive)
GI50 (KM12): > 100 µM (inactive)
GI50 (OVCAR-4): 33.7 µM (inactive)
GI50 (UACC-62): 47.3 µM (inactive)
GI50 (UO-31): > 100 µM (inactive)
GI50 (TK-10): 36.8 µM (inactive)
GI50 (LOX IMVI): > 100 µM (inactive)
GI50 (Hs-578T): 0.518 µM (active)
GI50 (ACHN): > 100 µM (inactive)
GI50 (NCI-H460): > 100 µM (inactive)
GI50 (MDA-MB-231): 26.4 µM (inactive)
GI50 (OVCAR-3): > 100 µM (inactive)
GI50 (HCT-15): > 100 µM
GI50 (Malme-3M): > 100 µM (inactive)
GI50 (NCI/ADR-RES): 92.7 µM (inactive)
GI50 (MDA-N): > 100 µM (inactive)
GI50 (SK-MEL-28): > 100 µM (inactive)
GI50 (HT-29): 50.8 µM (inactive)
GI50 (MCF7): 84.7 µM (inactive)
GI50 (SW-620): > 100 µM (inactive)
GI50 (OVCAR-5): 44.4 µM (inactive)
GI50 (U-251): 42.4 µM (inactive)
GI50 (SF-539): 36.5 µM (inactive)
GI50 (M14): 81.1 µM (inactive)
GI50 (SF-268): 48.5 µM (inactive)
GI50 (A549): 94.8 µM (inactive)
GI50 (NCI-H226): > 100 µM (inactive)
GI50 (HCT-116): 17.4 µM (inactive)
GI50 (NCI-H522): 97.9 µM (inactive)
GI50 (EKVX): 36.9 µM (inactive)
GI50 (HCC 2998): 49.3 µM (inactive)

COc1ccc(-c2cc(C(O)C3CCCCN3)c3ccccc3n2)cc1 (configuration not stated)
GI50 (T47D): 4 µM (inactive)
GI50 (COLO 205): 1.89 µM (inactive)
GI50 (PC-3): 5.08 µM (inactive)
GI50 (A498): 12.3 µM (inactive)
GI50 (SK-OV-3): 14.2 µM (inactive)
GI50 (HL-60): 11.1 µM (inactive)
GI50 (RPMI-8226): 2.33 µM (inactive)
GI50 (RXF 393): 4.58 µM (inactive)
GI50 (SNB-75): 4.31 µM (inactive)
GI50 (IGROV-1): 8.45 µM (inactive)
GI50 (HOP-62): 11.7 µM (inactive)
GI50 (786-0): 8.34 µM (inactive)
GI50 (SK-MEL-5): 6.25 µM (inactive)
GI50 (NCI-H23): 13.4 µM (inactive)
GI50 (SK-MEL-2): 6.12 µM (inactive)
GI50 (HOP-92): 2.86 µM (inactive)
GI50 (OVCAR-8): 13.7 µM (inactive)
GI50 (DU-145): 8.39 µM (inactive)
GI50 (UACC-257): 2.15 µM (inactive)
GI50 (CAKI-1): 5.86 µM (inactive)
GI50 (CCRF-CEM): 2.8 µM (inactive)
GI50 (MOLT-4): 3.59 µM (inactive)
GI50 (SNB-19): 13.7 µM (inactive)
GI50 (SR): 0.394 µM (active)
GI50 (SF-295): 14.7 µM (inactive)
GI50 (MDA-MB-435): 3.73 µM (inactive)
GI50 (K562): 2.54 µM (inactive)
GI50 (SN12C): 10.6 µM (inactive)
GI50 (BT-549): 15.9 µM (inactive)
GI50 (KM12): 4.14 µM (inactive)
GI50 (OVCAR-4): 13.7 µM (inactive)
GI50 (UACC-62): 3.37 µM (inactive)
GI50 (UO-31): 3.59 µM (inactive)
GI50 (TK-10): 10.4 µM (inactive)
GI50 (LOX IMVI): 2.62 µM (inactive)
GI50 (Hs-578T): 14.3 µM (inactive)
GI50 (ACHN): 11.9 µM (inactive)
GI50 (NCI-H460): 3.05 µM (inactive)
GI50 (MDA-MB-231): 2.36 µM (inactive)
GI50 (OVCAR-3): 14.4 µM (inactive)
GI50 (HCT-15): 14.2 µM
GI50 (Malme-3M): 13.6 µM (inactive)
GI50 (NCI/ADR-RES): 16.7 µM (inactive)
GI50 (MDA-N): 4.92 µM (inactive)
GI50 (SK-MEL-28): 2.43 µM (inactive)
GI50 (HT-29): 3.11 µM (inactive)
GI50 (MCF7): 3.87 µM (inactive)
GI50 (SW-620): 9.59 µM (inactive)
GI50 (OVCAR-5): 12 µM (inactive)
GI50 (U-251): 3.63 µM (inactive)
GI50 (SF-539): 10.1 µM (inactive)
GI50 (M14): 2.14 µM (inactive)
GI50 (SF-268): 11.2 µM (inactive)
GI50 (A549): 13.8 µM (inactive)
GI50 (NCI-H226): 7.06 µM (inactive)
GI50 (HCT-116): 9.35 µM (inactive)
GI50 (NCI-H522): 7.05 µM (inactive)
GI50 (EKVX): 6.92 µM (inactive)
GI50 (HCC 2998): 2.19 µM (inactive)

COc1ccc2c(c1)-c1c(c3ccccc3n1CCN1CCCCC1)CC2
GI50 (T47D): 18.9 µM (inactive)
GI50 (COLO 205): 13.2 µM (inactive)
GI50 (PC-3): 5.75 µM (inactive)
GI50 (A498): 34 µM (inactive)
GI50 (SK-OV-3): 24.2 µM (inactive)
GI50 (HL-60): 2.63 µM (inactive)
GI50 (RPMI-8226): 11.3 µM (inactive)
GI50 (RXF 393): 1.57 µM (inactive)
GI50 (SNB-75): 14.8 µM (inactive)
GI50 (IGROV-1): 13.8 µM (inactive)
GI50 (HOP-62): 8.79 µM (inactive)
GI50 (786-0): 16.9 µM (inactive)
GI50 (SK-MEL-5): 14.6 µM (inactive)
GI50 (NCI-H23): 18.3 µM (inactive)
GI50 (SK-MEL-2): 5.73 µM (inactive)
GI50 (HOP-92): 21.8 µM (inactive)
GI50 (OVCAR-8): 4.43 µM (inactive)
GI50 (DU-145): 53.8 µM (inactive)
GI50 (UACC-257): 22.4 µM (inactive)
GI50 (CAKI-1): 21.6 µM (inactive)
GI50 (CCRF-CEM): 19.5 µM (inactive)
GI50 (MOLT-4): 15.9 µM (inactive)
GI50 (SNB-19): 23.7 µM (inactive)
GI50 (SR): 6.64 µM (inactive)
GI50 (SF-295): 5.52 µM (inactive)
GI50 (MDA-MB-435): 24.9 µM (inactive)
GI50 (K562): 11.9 µM (inactive)
GI50 (SN12C): 22.4 µM (inactive)
GI50 (BT-549): 23.1 µM (inactive)
GI50 (KM12): 6.07 µM (inactive)
GI50 (OVCAR-4): 25.6 µM (inactive)
GI50 (UACC-62): 16.3 µM (inactive)
GI50 (UO-31): 12.6 µM (inactive)
GI50 (TK-10): 20.3 µM (inactive)
GI50 (LOX IMVI): 16.3 µM (inactive)
GI50 (Hs-578T): 9.82 µM (inactive)
GI50 (ACHN): 33.7 µM (inactive)
GI50 (NCI-H460): 16.6 µM (inactive)
GI50 (MDA-MB-231): 14.3 µM (inactive)
GI50 (OVCAR-3): 6.08 µM (inactive)
GI50 (HCT-15): 13.3 µM
GI50 (Malme-3M): 23.4 µM (inactive)
GI50 (NCI/ADR-RES): 6.25 µM (inactive)
GI50 (MDA-N): 23.7 µM (inactive)
GI50 (SK-MEL-28): 30.2 µM (inactive)
GI50 (HT-29): 10.3 µM (inactive)
GI50 (MCF7): 7.24 µM (inactive)
GI50 (SW-620): 26.1 µM (inactive)
GI50 (OVCAR-5): 11.9 µM (inactive)
GI50 (U-251): 19.5 µM (inactive)
GI50 (SF-539): 6.37 µM (inactive)
GI50 (M14): 5.47 µM (inactive)
GI50 (SF-268): 17.4 µM (inactive)
GI50 (A549): 10.6 µM (inactive)
GI50 (NCI-H226): 17.2 µM (inactive)
GI50 (HCT-116): 13.1 µM (inactive)
GI50 (NCI-H522): 14.6 µM (inactive)
GI50 (EKVX): 26.8 µM (inactive)
GI50 (HCC 2998): 6.87 µM (inactive)
